Reference: US5030634A (priority 1990, dated 1991)

Columns and labels:
[1] = mammalian tissues; cited from earlier work
[2] = tested on: rheumatoid arthritis patients; assay: Double-blind clinical trial of 10-deazaaminopterin versus methotrexate in rheumatoid arthritis: toxicity evaluation; type: in vivo, human; settings: for Toxicity: Dizziness / Toxicity: Gastrointestinal / Toxicity: Leukopenia / Toxicity: Rash: n = 7 per arm, 18 week trial
Method: The double-blind clinical trail of 10-deazaaminopterin versus methotrexate in rheumatoid arthritis was conducted at Universidad Peruana Cayetano Heredia, Lima, Peru. In order to detect 30% differences in either direction for both -efficacy and toxicity a sample size of 20 was used. The trial was conducted according to the following protocol.
The null hypotheses to be investigated included the following
Randomization was performed before the study began; an equal number of patients in each arm of the protocol was secured. Codes were made available to the investigator in sealed envelopes at the beginning of the trial; they were allowed to be opened by the investigator, only if felt to be mandatory for patient management. Patients received a three week supply of either 10-deazaaminopterin or methotrexate. […] Initially the patients received three capsules/week (or 7.5 mg). The capsules were taken at 12 hour intervals over a 24 hour period (8 a.m.-8 p.m. -8 a.m. the following day).
A data base which included a complete history, physical and laboratory exams was completed (Visit 0 or eligibility visit). […] If the patient was felt to be eligible, he/she was entered into the trial the following week (Visit 1) at which time disease activity was assessed and a functional test completed. Patients returned to the clinic every three weeks at which time joint counts were performed, side effects monitored and laboratory studies obtained. An assessment of response was done at week nine (Visit 3). At week 18 (Visit 6) or before (if the patient decides to be removed from the trial) the patient would have a complete exit evaluation, similar to the one performed on visit 1.
Joint counts for pain/tenderness in 60 diarthrodial joints and for swelling in 58 diarthrodial joints Laboratory tests included: CBC, with platelets and differential, Creatinine, SGOT and Alkaline phosphatase. […] 5 ml of sera were secured at entry and at study completion and stored at -20° C. for further studies.
Adverse effects were determined by interviewing the patient; each new symptom developing since the previous visit were recorded as to the date or onset, date of cessation, and whether it was felt to be related or unrelated to the study drug(s).
Minor itching and skin rashes could be handled with antihistaminics or topical steroids; a drop in the WBC ([…]) or in the platelets (<100,000/mm^3), or an increase in the liver enzymes ×2 normal), or an increase in the baseline creatinine (×2 normal) would prompt holding the drug for one week; if the values improved, patients may be restarted on the drug; if no improvement occurs in 3 weeks, the patient should be withdrawn. […] If no improvement occurs in 3 weeks, the patient should be withdrawn from the trial. If a patient develops a serious intercurrent infectious process, or requires elective or emergency surgery during the study period, the patient should be withdrawn from the trial.

[3] = tested on: patients receiving methotrexate; settings: cited from earlier work
dihydrofolate reductase = settings: 10-deazaaminopterin compared with methotrexate; cited from earlier work
cancer patients = settings: anticancer clinical trials, Cancer Treatment Reports 71:95, 1987; cited from earlier work

SMILES	Metabolism to poly-gamma-glutamates [1]	Toxicity: Dizziness [2]	Toxicity: Gastrointestinal [2]	Toxicity: Leukopenia [2]	Toxicity: Rash [2]	Patients who experienced an adverse drug reaction during treatment ([3]; human, in vivo)	Patients with toxic manifestations (nausea, stomatitis, elevated liver function tests, cytopenias, pulmonary toxicity) ([3]; patients receiving methotrexate)	Toxicity of methotrexate (in words) ([3]; use in rheumatoid arthritis)	Inhibition of dihydrofolate reductase (in words) (dihydrofolate reductase)	Bone marrow depression (cancer patients)	Nausea and vomiting (cancer patients)	Toxicity in humans versus methotrexate (in words) ([2]; clinical trials (not further specified), compared with methotrexate)	Frequency of toxicity (in words) ([2]; human, in vivo)
CN(Cc1cnc2nc(N)nc(N)c2n1)c1ccc(C(=O)N[C@@H](CCC(=O)O)C(=O)O)cc1 [methotrexate, reference compound]	metabolism of methotrexate to its poly-gamma-glutamates	1	2	1	0	93 % of patients	30-60 % of patients	very toxic drug	inhibit this enzyme to approximately the same magnitude	–	–	–	–
Nc1nc(N)c2nc(CCc3ccc(C(=O)NC(CCC(=O)O)C(=O)O)cc3)cnc2n1 (stereo not shown) [10-deazaaminopterin]	also metabolized to its poly-gamma-glutamates in mammalian tissues	0	2	0	1	–	–	–	inhibit this enzyme to approximately the same magnitude	minimal	mild	remarkably less toxic to humans	low frequency of toxicity
